Results: publication PMC9908026 (Science Advances, 2023)

Molecular target: T1, EcGlyRS ((αβ)2 orphan GlyRS, full-length; EcGlyRS_FL) (Escherichia coli, UniProt P00960)
T1 construct: gene glyQ; full-length α and β subunits co-expressed in E. coli BL21(DE3); C-terminal His6 tag on β, no cleavage told; (αβ)2 heterotetramer; with Glycine--tRNA ligase beta subunit
T1 sequence (P00960 1-303): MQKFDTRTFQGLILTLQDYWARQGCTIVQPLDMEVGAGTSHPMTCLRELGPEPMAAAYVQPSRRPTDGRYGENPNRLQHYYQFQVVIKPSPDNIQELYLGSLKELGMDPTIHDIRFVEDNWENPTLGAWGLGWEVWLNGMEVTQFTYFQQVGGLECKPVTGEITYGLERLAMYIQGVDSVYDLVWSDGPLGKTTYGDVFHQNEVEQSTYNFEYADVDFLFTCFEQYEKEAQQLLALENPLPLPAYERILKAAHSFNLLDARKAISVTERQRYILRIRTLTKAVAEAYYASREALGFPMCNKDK
T1 sequence (P00961 2-689 partner): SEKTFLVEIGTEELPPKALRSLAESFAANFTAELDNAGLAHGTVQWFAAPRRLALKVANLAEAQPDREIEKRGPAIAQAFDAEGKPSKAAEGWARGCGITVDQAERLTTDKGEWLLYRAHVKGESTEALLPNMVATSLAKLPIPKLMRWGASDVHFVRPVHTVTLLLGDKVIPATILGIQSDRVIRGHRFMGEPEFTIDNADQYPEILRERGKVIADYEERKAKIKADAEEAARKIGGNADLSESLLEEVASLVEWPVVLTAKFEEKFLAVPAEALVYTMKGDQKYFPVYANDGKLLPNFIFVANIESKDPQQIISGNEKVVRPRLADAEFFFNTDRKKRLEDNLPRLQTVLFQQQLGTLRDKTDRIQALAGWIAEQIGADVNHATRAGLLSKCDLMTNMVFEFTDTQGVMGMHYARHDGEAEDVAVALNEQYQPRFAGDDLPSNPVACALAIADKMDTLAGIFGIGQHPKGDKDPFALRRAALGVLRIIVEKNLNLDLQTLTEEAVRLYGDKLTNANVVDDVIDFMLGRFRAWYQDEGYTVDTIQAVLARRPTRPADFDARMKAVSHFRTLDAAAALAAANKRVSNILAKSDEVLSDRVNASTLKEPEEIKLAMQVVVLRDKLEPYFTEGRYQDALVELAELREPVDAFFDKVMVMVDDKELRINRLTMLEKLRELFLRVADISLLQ
Test: ATP consumption assay (Kinase-Glo luminescence)
Type: biochemical
Settings: 4 μM ATP, 500 μM glycine, tRNA-Gly(GCC) 0.25 mg/ml, 40 mM MgCl2, pH 7.5, room temperature; 50 nM enzyme

SMILES: Nc1ncnc2c1ncn2[C@@H]1O[C@H](COP(=O)(O)OP(=O)(O)OP(=O)(O)O)[C@@H](O)[C@H]1O [ATP]
- ATP consumption assay (Kinase-Glo luminescence): An ATP consumption assay was used to evaluate the aminoacylation activity of EcGlyRS on tRNA^Gly
